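Results reflect a 48-hour exposure of cells in 96-well plates to compound at five concentrations. TGI denotes the concentration required for complete inhibition of growth.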
What was measured:
Assay in all cases: NCI-60 cell line screen, 48 h
SR leukemia = system: SR leukemia
COLO 205 colon = system: COLO 205 colon
NCI/ADR-RES ovarian = system: NCI/ADR-RES ovarian
HOP-62 NSCLC = system: HOP-62 NSCLC
MOLT-4 leukemia = system: MOLT-4 leukemia
K-562 leukemia = system: K-562 leukemia
MDA-MB-435 = system: MDA-MB-435
PC-3 prostate = system: PC-3 prostate
IGROV1 ovarian = system: IGROV1 ovarian
OVCAR-5 ovarian = system: OVCAR-5 ovarian
DU-145 prostate = system: DU-145 prostate
OVCAR-3 ovarian = system: OVCAR-3 ovarian
MDA-N = system: MDA-N
MALME-3M melanoma = system: MALME-3M melanoma
HL-60(TB) leukemia = system: HL-60(TB) leukemia
SK-MEL-2 melanoma = system: SK-MEL-2 melanoma
NCI-H522 lung = system: NCI-H522 lung
NCI-H460 lung = system: NCI-H460 lung
UACC-62 melanoma = system: UACC-62 melanoma
U251 CNS = system: U251 CNS
OVCAR-8 ovarian = system: OVCAR-8 ovarian
T-47D breast = system: T-47D breast
UACC-257 melanoma = system: UACC-257 melanoma
KM12 colon = system: KM12 colon
MDA-MB-231 breast = system: MDA-MB-231 breast
HS 578T breast = system: HS 578T breast
SF-268 CNS = system: SF-268 CNS
M14 melanoma = system: M14 melanoma
A549 NSCLC = system: A549 NSCLC
SF-295 CNS = system: SF-295 CNS
SK-MEL-28 melanoma = system: SK-MEL-28 melanoma
SK-OV-3 ovarian = system: SK-OV-3 ovarian
NCI-H23 lung = system: NCI-H23 lung
TK-10 renal = system: TK-10 renal
CCRF-CEM leukemia = system: CCRF-CEM leukemia
MCF7 breast = system: MCF7 breast
SNB-19 CNS = system: SNB-19 CNS
SNB-75 CNS = system: SNB-75 CNS
BT-549 breast = system: BT-549 breast
A498 renal = system: A498 renal
HCT-116 colon = system: HCT-116 colon
SN12C renal = system: SN12C renal
786-0 renal = system: 786-0 renal
UO-31 renal = system: UO-31 renal
SK-MEL-5 melanoma = system: SK-MEL-5 melanoma
SF-539 CNS = system: SF-539 CNS
SW-620 colon = system: SW-620 colon
HT29 colon = system: HT29 colon
ACHN renal = system: ACHN renal
HCT-15 colon = system: HCT-15 colon
NCI-H226 lung = system: NCI-H226 lung
HCC-2998 colon = system: HCC-2998 colon
CAKI-1 renal = system: CAKI-1 renal
HOP-92 NSCLC = system: HOP-92 NSCLC
LOX IMVI melanoma = system: LOX IMVI melanoma
OVCAR-4 ovarian = system: OVCAR-4 ovarian
EKVX NSCLC = system: EKVX NSCLC
RPMI-8226 leukemia = system: RPMI-8226 leukemia

## CN(C)CCNC(=O)c1cccc(N(C)C(=O)c2ccccc2)c1[N+](=O)[O-]
SR leukemia
  TGI: > 100 µM
COLO 205 colon
  TGI: > 10 µM
NCI/ADR-RES ovarian
  TGI: > 100 µM
HOP-62 NSCLC
  TGI: > 100 µM
MOLT-4 leukemia
  TGI: > 100 µM
K-562 leukemia
  TGI: > 100 µM
MDA-MB-435
  TGI: > 100 µM
PC-3 prostate
  TGI: > 100 µM
IGROV1 ovarian
  TGI: > 100 µM
OVCAR-5 ovarian
  TGI: > 100 µM
DU-145 prostate
  TGI: > 100 µM
OVCAR-3 ovarian
  TGI: > 100 µM
MDA-N
  TGI: > 100 µM
MALME-3M melanoma
  TGI: > 100 µM
HL-60(TB) leukemia
  TGI: > 100 µM
SK-MEL-2 melanoma
  TGI: > 100 µM
NCI-H522 lung
  TGI: > 100 µM
NCI-H460 lung
  TGI: > 100 µM
UACC-62 melanoma
  TGI: > 100 µM
U251 CNS
  TGI: > 100 µM
OVCAR-8 ovarian
  TGI: > 100 µM
T-47D breast
  TGI: > 100 µM
UACC-257 melanoma
  TGI: > 10 µM
KM12 colon
  TGI: > 100 µM
MDA-MB-231 breast
  TGI: > 100 µM
HS 578T breast
  TGI: > 100 µM
SF-268 CNS
  TGI: > 100 µM
M14 melanoma
  TGI: > 100 µM
A549 NSCLC
  TGI: > 100 µM
SF-295 CNS
  TGI: > 100 µM
SK-MEL-28 melanoma
  TGI: > 100 µM
SK-OV-3 ovarian
  TGI: > 100 µM
NCI-H23 lung
  TGI: > 100 µM
TK-10 renal
  TGI: > 100 µM
CCRF-CEM leukemia
  TGI: > 100 µM
MCF7 breast
  TGI: > 100 µM
SNB-19 CNS
  TGI: > 100 µM
SNB-75 CNS
  TGI: > 100 µM
BT-549 breast
  TGI: > 100 µM
A498 renal
  TGI: > 100 µM
HCT-116 colon
  TGI: > 100 µM
SN12C renal
  TGI: > 10 µM
786-0 renal
  TGI: > 100 µM
UO-31 renal
  TGI: > 100 µM
SK-MEL-5 melanoma
  TGI: > 100 µM
SF-539 CNS
  TGI: > 100 µM
SW-620 colon
  TGI: > 100 µM
HT29 colon
  TGI: > 100 µM
ACHN renal
  TGI: > 100 µM
HCT-15 colon
  TGI: > 100 µM
NCI-H226 lung
  TGI: > 100 µM
HCC-2998 colon
  TGI: > 100 µM
CAKI-1 renal
  TGI: > 100 µM

## O=c1[nH]c(=S)[nH]c2c1CN(CCCN1CCOCC1)CN2
SR leukemia
  TGI: > 100 µM
COLO 205 colon
  TGI: 38.6 µM
NCI/ADR-RES ovarian
  TGI: > 100 µM
HOP-62 NSCLC
  TGI: > 100 µM
MOLT-4 leukemia
  TGI: 83 µM
HOP-92 NSCLC
  TGI: > 100 µM
K-562 leukemia
  TGI: > 100 µM
MDA-MB-435
  TGI: 69.6 µM
PC-3 prostate
  TGI: 57.1 µM
IGROV1 ovarian
  TGI: > 100 µM
OVCAR-5 ovarian
  TGI: > 100 µM
DU-145 prostate
  TGI: > 100 µM
OVCAR-3 ovarian
  TGI: > 100 µM
MDA-N
  TGI: > 100 µM
MALME-3M melanoma
  TGI: 42.3 µM
SK-MEL-2 melanoma
  TGI: 39.8 µM
NCI-H522 lung
  TGI: 52.3 µM
NCI-H460 lung
  TGI: 87.2 µM
UACC-62 melanoma
  TGI: 37.3 µM
U251 CNS
  TGI: > 100 µM
OVCAR-8 ovarian
  TGI: 96.4 µM
T-47D breast
  TGI: > 100 µM
UACC-257 melanoma
  TGI: > 100 µM
KM12 colon
  TGI: 95.9 µM
MDA-MB-231 breast
  TGI: 66.4 µM
HS 578T breast
  TGI: > 100 µM
SF-268 CNS
  TGI: 59.1 µM
M14 melanoma
  TGI: 59.6 µM
A549 NSCLC
  TGI: > 100 µM
SF-295 CNS
  TGI: > 100 µM
SK-MEL-28 melanoma
  TGI: > 100 µM
NCI-H23 lung
  TGI: 54.4 µM
TK-10 renal
  TGI: > 100 µM
MCF7 breast
  TGI: > 100 µM
SNB-19 CNS
  TGI: > 100 µM
LOX IMVI melanoma
  TGI: 62.4 µM
BT-549 breast
  TGI: > 100 µM
A498 renal
  TGI: > 100 µM
HCT-116 colon
  TGI: > 100 µM
SN12C renal
  TGI: > 100 µM
786-0 renal
  TGI: > 100 µM
UO-31 renal
  TGI: > 100 µM
SK-MEL-5 melanoma
  TGI: > 100 µM
OVCAR-4 ovarian
  TGI: > 100 µM
EKVX NSCLC
  TGI: > 100 µM
SF-539 CNS
  TGI: 58.2 µM
SW-620 colon
  TGI: > 100 µM
HT29 colon
  TGI: > 100 µM
RPMI-8226 leukemia
  TGI: 75.6 µM
ACHN renal
  TGI: 92 µM
HCT-15 colon
  TGI: > 100 µM
NCI-H226 lung
  TGI: > 100 µM
HCC-2998 colon
  TGI: 73.3 µM
CAKI-1 renal
  TGI: > 100 µM

— PubChem BioAssay (NCI)
